Laboratory results reported in publication PMC3523389 (The Journal of pharmacology and experimental therapeutics, 2012).

Molecular target: T1, microsomal prostaglandin E2 synthase-1 (mPGES-1) (Homo sapiens, UniProt O14684)
T1 sequence (O14684 1-152): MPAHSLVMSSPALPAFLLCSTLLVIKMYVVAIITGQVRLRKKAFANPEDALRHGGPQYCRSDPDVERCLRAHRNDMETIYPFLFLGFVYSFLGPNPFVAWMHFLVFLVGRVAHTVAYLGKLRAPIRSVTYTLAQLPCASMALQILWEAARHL
Experiment: cell-free mPGES-1 activity assay in A549 microsomes, […] inhibition at […]
Assay type: cell-based
Conditions: A549, read-out: % inhibition at 10 μM

CC(C)c1ccc2c(c1)c(SC(C)(C)C)c(CC(C)(C)C(=O)O)n2Cc1ccc(Cl)cc1 [MK-886, 3-[1-(4-chlorobenzyl)-3-t-butylthio-5-isopropylindol-2-yl]-2,2-dimethylpropanoic acid]
inhibition at 10 µM: 74.5 ± 1.5%
